Results reported in ChEMBL document CHEMBL4393664, “2,4-Disubstituted quinazolines targeting breast cancer cells via EGFR-PI3K” (Eur J Med Chem, 2019).
The source made the active and inactive calls. The calls are words filed in the database; no cut-off is given here.

Columns and labels:
MDA-MB-231 [1] = assay: Cytotoxicity against human MDA-MB-231 cells assessed as reduction in cell viability after 72 hrs by MTT assay; assay type: functional, cell-based; conditions: MDA-MB-231, 72 h
HGC-27 = assay: Cytotoxicity against human HGC27 cells assessed as reduction in cell viability after 72 hrs by MTT assay; assay type: functional, cell-based; conditions: HGC-27, 72 h
MGC-803 = assay: Cytotoxicity against human MGC803 cells assessed as reduction in cell viability after 72 hrs by MTT assay; assay type: functional, cell-based; conditions: MGC-803, 72 h
MCF7 [2] = assay: Antiproliferative activity against human MCF7 cells assessed as reduction in cell viability up to 32 uM by MTT assay; assay type: functional, cell-based; conditions: TDE = time-dependent effect
MDA-MB-231 [3] = assay: Antiproliferative activity against human MDA-MB-231 cells assessed as reduction in cell viability after 24 to 72 hrs by MTT assay; assay type: functional, cell-based
MCF7 [4] = assay: Antiproliferative activity against human MCF7 cells assessed as reduction in cell viability after 24 to 72 hrs by MTT assay; assay type: functional, cell-based
MDA-MB-231 [5] = assay: Inhibition of colony formation in human MDA-MB-231 cells at 9 uM after 7 days by crystal violet staining based microscopic analysis; assay type: functional, cell-based
MDA-MB-231 [6] = assay: Cell cycle arrest in human MDA-MB-231 cells assessed as accumulation at S phase at 3 uM after 24 hrs by propidium iodide/RNase A staining-based flow cytometric analysis (reference value: 23.07%); assay type: functional
MDA-MB-231 [7] = assay: Cell cycle arrest in human MDA-MB-231 cells assessed as accumulation at G1 phase at 12 uM after 24 hrs by propidium iodide/RNase A staining-based flow cytometric analysis (reference value: 49.17%); assay type: functional
MDA-MB-231 [8] = assay: Cell cycle arrest in human MDA-MB-231 cells assessed as accumulation at G2 phase at 12 uM after 24 hrs by propidium iodide/RNase A staining-based flow cytometric analysis (reference value: 27.76%); assay type: functional
MCF7 [9] = assay: Cell cycle arrest in human MCF7 cells assessed as accumulation at G1 phase at 3 uM after 24 hrs by propidium iodide/RNase A staining-based flow cytometric analysis (reference value: 52.21%); assay type: functional
MCF7 [10] = assay: Cell cycle arrest in human MCF7 cells assessed as accumulation at G1 phase at 6 uM after 24 hrs by propidium iodide/RNase A staining-based flow cytometric analysis (reference value: 52.21%); assay type: functional
MCF7 [11] = assay: Cell cycle arrest in human MCF7 cells assessed as accumulation at S phase at 6 uM after 24 hrs by propidium iodide/RNase A staining-based flow cytometric analysis (reference value: 17.17%); assay type: functional
MCF7 [12] = assay: Cell cycle arrest in human MCF7 cells assessed as accumulation at G2 phase at 12 uM after 24 hrs by propidium iodide/RNase A staining-based flow cytometric analysis (reference value: 30.62%); assay type: functional
MCF7 [13] = assay: Cell cycle arrest in human MCF7 cells assessed as accumulation at S phase at 12 uM after 24 hrs by propidium iodide/RNase A staining-based flow cytometric analysis (reference value: 17.17%); assay type: functional
MCF7 [14] = assay: Induction of apoptosis in human MCF7 cells assessed as increase in nuclear lysis up to 8 uM after 48 hrs by DAPI staining-based fluorescence microscopic method; assay type: functional, cell-based
MDA-MB-231 [15] = assay: Induction of apoptosis in human MDA-MB-231 cells assessed as viable cells at 4 uM after 48 hrs by Annexin-V-FITC/propidium iodide staining based flow cytometry (reference value: 92.1%); assay type: functional; conditions: MDA-MB-231, 48 h, read-out: Activity
MDA-MB-231 [16] = assay: Induction of apoptosis in human MDA-MB-231 cells assessed as late apoptotic cells at 4 uM after 48 hrs by Annexin-V-FITC/propidium iodide staining based flow cytometry (reference value: 2.38%); assay type: functional
MDA-MB-231 [17] = assay: Induction of apoptosis in human MDA-MB-231 cells assessed as early apoptotic cells at 6 uM after 48 hrs by Annexin-V-FITC/propidium iodide staining based flow cytometry (reference value: 4.33%); assay type: functional
MDA-MB-231 [18] = assay: Induction of apoptosis in human MDA-MB-231 cells assessed as necrotic cells at 6 uM after 48 hrs by Annexin-V-FITC/propidium iodide staining based flow cytometry (reference value: 1.21%); assay type: functional
MCF7 [19] = assay: Induction of apoptosis in human MCF7 cells assessed as viable cells at 2 uM after 48 hrs by Annexin-V-FITC/propidium iodide staining based flow cytometry (reference value: 91.1%); assay type: functional; conditions: MCF7, 48 h, read-out: Activity
MCF7 [20] = assay: Induction of apoptosis in human MCF7 cells assessed as early apoptotic cells at 2 uM after 48 hrs by Annexin-V-FITC/propidium iodide staining based flow cytometry (reference value: 3.05%); assay type: functional
MCF7 [21] = assay: Induction of apoptosis in human MCF7 cells assessed as viable cells at 4 uM after 48 hrs by Annexin-V-FITC/propidium iodide staining based flow cytometry (reference value: 91.1%); assay type: functional; conditions: MCF7, 48 h, read-out: Activity
MCF7 [22] = assay: Induction of apoptosis in human MCF7 cells assessed as late apoptotic cells at 4uM after 48 hrs by Annexin-V-FITC/propidium iodide staining based flow cytometry (reference value: 4.28%); assay type: functional
MCF7 [23] = assay: Induction of apoptosis in human MCF7 cells assessed as necrotic cells at 6 uM after 48 hrs by Annexin-V-FITC/propidium iodide staining based flow cytometry (reference value: 1.57%); assay type: functional
MDA-MB-231 [24] = assay: Induction of apoptosis in human MDA-MB-231 cells after 48 hrs by Annexin-V-FITC/propidium iodide staining based flow cytometry; assay type: functional, cell-based
MCF7 [25] = assay: Induction of apoptosis in human MCF7 cells after 48 hrs by Annexin-V-FITC/propidium iodide staining based flow cytometry; assay type: functional, cell-based
MCF7 [26] = assay: Induction of apoptosis in human MCF7 cells assessed as downregulation of Bcl-2 protein expression at 3 to 12 uM after 48 hrs by Western blot analysis; assay type: functional, cell-based
MDA-MB-231 [27] = assay: Induction of apoptosis in human MDA-MB-231 cells assessed as increase in Bax expression levels at 3 to 12 uM after 48 hrs by Western blot analysis; assay type: functional, cell-based
MCF7 [28] = assay: Induction of apoptosis in human MCF7 cells assessed as increase in Bax expression levels at 3 to 12 uM after 48 hrs by Western blot analysis; assay type: functional, cell-based
[29] = molecular target: Epidermal growth factor receptor (Homo sapiens) (UniProt P00533); assay: Inhibition of EGFR in human MDA-MB-231 cells assessed as reduction in phosphorylated PI3K expression after 8 hrs by Western blot analysis; assay type: cell-based
Chain of Epidermal growth factor receptor (Homo sapiens) (P00533 whole entry): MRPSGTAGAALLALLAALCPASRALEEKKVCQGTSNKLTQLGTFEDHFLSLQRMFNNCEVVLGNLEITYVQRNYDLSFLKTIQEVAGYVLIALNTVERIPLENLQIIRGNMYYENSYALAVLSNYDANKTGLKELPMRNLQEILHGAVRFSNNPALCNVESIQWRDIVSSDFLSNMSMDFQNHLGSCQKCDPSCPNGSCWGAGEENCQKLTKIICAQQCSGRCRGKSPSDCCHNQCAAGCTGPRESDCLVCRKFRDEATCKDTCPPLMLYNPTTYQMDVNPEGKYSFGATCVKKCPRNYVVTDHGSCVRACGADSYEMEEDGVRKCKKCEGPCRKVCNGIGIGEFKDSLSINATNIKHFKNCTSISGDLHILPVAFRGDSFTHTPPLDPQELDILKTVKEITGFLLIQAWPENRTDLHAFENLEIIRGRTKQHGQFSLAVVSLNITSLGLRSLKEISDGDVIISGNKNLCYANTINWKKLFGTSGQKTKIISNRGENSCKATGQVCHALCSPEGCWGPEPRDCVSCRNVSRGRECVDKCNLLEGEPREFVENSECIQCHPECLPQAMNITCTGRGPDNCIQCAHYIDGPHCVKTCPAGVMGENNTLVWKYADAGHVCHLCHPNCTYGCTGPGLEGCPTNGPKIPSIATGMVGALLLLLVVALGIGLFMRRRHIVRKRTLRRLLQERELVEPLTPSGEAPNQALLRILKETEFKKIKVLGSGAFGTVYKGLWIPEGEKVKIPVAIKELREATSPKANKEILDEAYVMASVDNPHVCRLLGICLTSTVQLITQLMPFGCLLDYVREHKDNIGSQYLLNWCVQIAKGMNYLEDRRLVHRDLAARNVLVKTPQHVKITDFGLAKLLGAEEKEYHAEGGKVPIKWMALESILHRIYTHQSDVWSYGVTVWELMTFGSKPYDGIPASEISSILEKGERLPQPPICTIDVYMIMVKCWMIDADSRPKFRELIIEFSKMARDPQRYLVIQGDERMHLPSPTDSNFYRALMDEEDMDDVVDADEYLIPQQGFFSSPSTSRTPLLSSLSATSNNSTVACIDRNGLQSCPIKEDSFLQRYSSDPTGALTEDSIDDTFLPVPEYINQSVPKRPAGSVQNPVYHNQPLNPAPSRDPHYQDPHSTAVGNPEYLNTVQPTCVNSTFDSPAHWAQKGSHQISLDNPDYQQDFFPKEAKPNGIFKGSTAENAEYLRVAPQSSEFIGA

[30] = molecular target: Epidermal growth factor receptor (Homo sapiens) (UniProt P00533); assay: Inhibition of EGFR in human MDA-MB-231 cells assessed as reduction in phosphorylated AKT expression after 8 hrs by Western blot analysis; assay type: cell-based
MCF7 [31] = assay: Effect on total PI3K protein level in human MCF7 cells up to 12 uM after 8 hrs by Western blot analysis; assay type: ADME, cell-based; conditions: mcf7, 8 h
MCF7 [32] = assay: Effect on total AKT protein level in human MCF7 cells up to 12 uM after 8 hrs by Western blot analysis; assay type: ADME, cell-based; conditions: mcf7, 8 h
[33] = molecular target: Epidermal growth factor receptor (Homo sapiens) (UniProt P00533); assay: Inhibition of EGFR phosphorylation at Y1045 residues in human MDA-MB-231 cells after 8 hrs by Western blot analysis; assay type: cell-based
[34] = molecular target: Epidermal growth factor receptor (Homo sapiens) (UniProt P00533); assay: Inhibition of EGFR phosphorylation at Y1045 residues in human MCF7 cells after 8 hrs by Western blot analysis; assay type: cell-based
[35] = molecular target: Epidermal growth factor receptor (Homo sapiens) (UniProt P00533); assay: Inhibition of EGFR phosphorylation at Y1068 residues in human MDA-MB-231 cells after 8 hrs by Western blot analysis; assay type: cell-based

**Q.** What does the source list for FC(F)(F)c1ccc(CSc2nc(Nc3ccc(C(F)(F)F)cc3)c3ccccc3n2)cc1?
**A.** IC50 (MDA-MB-231 [1]): 5.46 µM; IC50 (HGC-27): 7.56 µM; IC50 (MGC-803): 6.17 µM; Activity (MCF7 [2]): Tde; Activity (MDA-MB-231 [3]): Dose-dependent effect; Activity (MCF7 [4]): Dose-dependent effect; growth inhibition (GI) (MDA-MB-231 [5]): Active; Activity (MDA-MB-231 [6]): 18.96%; Activity (MDA-MB-231 [7]): 69.54%; Activity (MDA-MB-231 [8]): 11.69%; Activity (MCF7 [9]): 59.18%; Activity (MCF7 [10]): 65.05%; Activity (MCF7 [11]): 19.52%; Activity (MCF7 [12]): 14.32%; Activity (MCF7 [13]): 10.65%; Activity (MCF7 [14]): Active; viability at 4 µM (MDA-MB-231 [15]): 71.1%; Activity (MDA-MB-231 [16]): 15.3%; Activity (MDA-MB-231 [17]): 10.4%; Activity (MDA-MB-231 [18]): 2.49%; viability at 2 µM (MCF7 [19]): 81.1%; Activity (MCF7 [20]): 11.4%; viability at 4 µM (MCF7 [21]): 76.2%; Activity (MCF7 [22]): 7.49%; Activity (MCF7 [23]): 1.8%; Activity (MDA-MB-231 [24]): Dose-dependent effect; Activity (MCF7 [25]): Dose-dependent effect; Activity (MCF7 [26]): Active; Activity (MDA-MB-231 [27]): Active; Activity (MCF7 [28]): Active; inhibition [29]: Dose-dependent effect; inhibition [30]: Dose-dependent effect; Activity (MCF7 [31]): Non-Toxic; Activity (MCF7 [32]): Non-Toxic; inhibition [33]: Dose-dependent effect; inhibition [34]: Dose-dependent effect; inhibition [35]: Dose-dependent effect
